The source made the active and inactive calls.

Assay [1] addresses FAD-linked sulfhydryl oxidase ALR (Homo sapiens, UniProt P55789). In words: inhibitors of human ALR sulfhydryl oxidase, dose response, biochemical, H2O2 detection, luminescence, cherry-pick (AID 493248).
The target of a further assay is T1, Protein RecA (Mycobacterium tuberculosis, UniProt P9WHJ3).
T1 sequence (P9WHJ3 whole entry): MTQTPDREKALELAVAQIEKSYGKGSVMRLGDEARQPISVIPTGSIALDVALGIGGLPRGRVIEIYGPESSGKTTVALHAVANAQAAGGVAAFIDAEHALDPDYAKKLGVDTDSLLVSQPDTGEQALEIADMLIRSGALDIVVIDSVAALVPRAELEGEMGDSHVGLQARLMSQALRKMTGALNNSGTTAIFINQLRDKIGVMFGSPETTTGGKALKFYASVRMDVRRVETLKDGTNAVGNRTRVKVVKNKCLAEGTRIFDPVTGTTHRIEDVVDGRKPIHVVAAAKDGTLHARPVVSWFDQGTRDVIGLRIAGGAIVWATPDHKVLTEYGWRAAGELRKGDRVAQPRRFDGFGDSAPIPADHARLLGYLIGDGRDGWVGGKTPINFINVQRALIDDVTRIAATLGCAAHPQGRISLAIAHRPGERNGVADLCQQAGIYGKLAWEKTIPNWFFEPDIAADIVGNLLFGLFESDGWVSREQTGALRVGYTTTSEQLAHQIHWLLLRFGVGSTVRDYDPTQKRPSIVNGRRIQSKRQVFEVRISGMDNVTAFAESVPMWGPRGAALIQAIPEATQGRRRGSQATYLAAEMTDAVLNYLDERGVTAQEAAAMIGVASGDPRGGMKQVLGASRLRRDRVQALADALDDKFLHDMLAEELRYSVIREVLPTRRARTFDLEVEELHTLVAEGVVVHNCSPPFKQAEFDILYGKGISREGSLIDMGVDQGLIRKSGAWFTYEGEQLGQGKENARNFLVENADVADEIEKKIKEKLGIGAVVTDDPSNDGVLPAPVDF
In words: Fluorescence Cell-Free Homogeneous Dose Retest to Identify Inhibitors of RecA-Intein Splicing Activity. [Related pubchem assays (depositor defined):AID2097, AID2223, AID489010, AID492950]. Type of assay: functional.

The next assay deals with Genome polyprotein (dengue virus type 2, UniProt P29990). In words: Dengue-2 NS5 methyltransferase inhibitors, primary screen, biochemical, confirmation dose response (AID 588689). Type of assay: functional.
Sequence of Genome polyprotein (P29990 2492-3391 limits assumed): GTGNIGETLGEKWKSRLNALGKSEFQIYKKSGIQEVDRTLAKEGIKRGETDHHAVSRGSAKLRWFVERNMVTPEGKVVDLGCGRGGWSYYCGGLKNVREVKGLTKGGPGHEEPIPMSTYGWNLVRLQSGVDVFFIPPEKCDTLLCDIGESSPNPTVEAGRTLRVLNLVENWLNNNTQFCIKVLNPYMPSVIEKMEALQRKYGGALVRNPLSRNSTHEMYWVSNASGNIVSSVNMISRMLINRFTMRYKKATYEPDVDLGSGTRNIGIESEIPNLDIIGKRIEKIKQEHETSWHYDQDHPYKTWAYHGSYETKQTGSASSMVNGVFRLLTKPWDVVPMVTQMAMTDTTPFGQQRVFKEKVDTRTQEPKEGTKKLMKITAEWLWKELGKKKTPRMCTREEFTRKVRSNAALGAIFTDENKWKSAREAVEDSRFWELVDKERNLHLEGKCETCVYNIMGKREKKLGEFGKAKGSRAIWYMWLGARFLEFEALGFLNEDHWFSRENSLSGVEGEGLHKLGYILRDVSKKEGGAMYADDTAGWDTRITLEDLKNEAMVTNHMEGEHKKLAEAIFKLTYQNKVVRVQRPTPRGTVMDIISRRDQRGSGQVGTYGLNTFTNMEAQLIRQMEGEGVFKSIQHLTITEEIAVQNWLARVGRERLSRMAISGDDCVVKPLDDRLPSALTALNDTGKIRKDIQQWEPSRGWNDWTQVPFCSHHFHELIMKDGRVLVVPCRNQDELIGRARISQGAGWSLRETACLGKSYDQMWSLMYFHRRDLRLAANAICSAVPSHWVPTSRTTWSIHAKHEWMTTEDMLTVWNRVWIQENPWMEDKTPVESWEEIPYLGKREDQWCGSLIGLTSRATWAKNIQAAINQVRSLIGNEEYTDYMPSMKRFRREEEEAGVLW
The target of assay [2] is T2, Replicative DNA helicase DnaB (Mycobacterium tuberculosis, UniProt P9WMR3).
T2 sequence (P9WMR3 whole entry): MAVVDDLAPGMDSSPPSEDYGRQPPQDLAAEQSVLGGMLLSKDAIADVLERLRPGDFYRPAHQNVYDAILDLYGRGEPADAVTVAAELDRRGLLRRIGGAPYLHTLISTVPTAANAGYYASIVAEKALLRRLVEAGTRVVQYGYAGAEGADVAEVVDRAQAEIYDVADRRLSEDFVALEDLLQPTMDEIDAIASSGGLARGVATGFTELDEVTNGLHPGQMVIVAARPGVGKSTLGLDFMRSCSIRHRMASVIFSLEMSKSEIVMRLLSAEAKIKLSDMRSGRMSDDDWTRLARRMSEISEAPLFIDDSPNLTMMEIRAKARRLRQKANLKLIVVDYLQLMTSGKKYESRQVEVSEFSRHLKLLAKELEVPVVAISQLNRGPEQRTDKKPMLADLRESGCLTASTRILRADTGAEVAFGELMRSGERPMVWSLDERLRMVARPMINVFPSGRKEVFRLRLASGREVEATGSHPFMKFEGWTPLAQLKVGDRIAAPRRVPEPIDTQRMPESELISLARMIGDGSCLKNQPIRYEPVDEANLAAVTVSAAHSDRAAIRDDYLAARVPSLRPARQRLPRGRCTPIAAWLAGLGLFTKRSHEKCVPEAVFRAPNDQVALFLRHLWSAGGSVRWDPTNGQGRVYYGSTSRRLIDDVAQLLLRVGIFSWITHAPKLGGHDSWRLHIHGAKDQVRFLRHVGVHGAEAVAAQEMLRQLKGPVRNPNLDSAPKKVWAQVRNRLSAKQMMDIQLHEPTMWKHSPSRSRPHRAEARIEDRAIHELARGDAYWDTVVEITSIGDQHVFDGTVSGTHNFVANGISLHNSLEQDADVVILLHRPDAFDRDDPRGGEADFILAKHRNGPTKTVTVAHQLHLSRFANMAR
In words: DnaB intein splicing inhibitors, dose response, biochemical, cell-free fluorescence (AID 449749). Type of assay: functional.

The target of assay [3] is Heat shock protein HSP 90-alpha (Homo sapiens, UniProt P07900). Type of assay: functional, organism-based.
Another assay addresses T3, Aurora kinase A (Homo sapiens, UniProt O14965).
T3 sequence (O14965 whole entry): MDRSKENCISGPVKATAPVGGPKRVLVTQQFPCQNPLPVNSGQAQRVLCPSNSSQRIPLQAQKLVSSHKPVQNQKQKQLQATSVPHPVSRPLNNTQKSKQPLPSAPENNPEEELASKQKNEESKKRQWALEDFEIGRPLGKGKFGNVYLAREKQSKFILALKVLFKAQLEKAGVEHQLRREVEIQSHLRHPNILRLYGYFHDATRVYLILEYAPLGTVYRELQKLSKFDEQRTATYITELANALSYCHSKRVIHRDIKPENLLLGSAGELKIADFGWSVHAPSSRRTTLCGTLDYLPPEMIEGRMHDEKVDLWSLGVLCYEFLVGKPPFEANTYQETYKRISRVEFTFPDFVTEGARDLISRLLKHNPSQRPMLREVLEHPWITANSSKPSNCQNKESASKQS
Type of assay: functional.

The next assay has as its target Aurora kinase B (Homo sapiens, UniProt Q96GD4). Type of assay: functional.
Assay [4] concerns the target Ras and Rab interactor 1/Tyrosine-protein kinase ABL1 (Homo sapiens, UniProt P00519+Q13671). Type of assay: functional.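 Note: biochemical TR-FRET dose-response test measuring inhibition of binding between Rin1 and Abl proteins.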
The nature of assay [5]: inhibitors of intracellular T. cruzi replication, confirmation, NIH3T3 host cells, beta-gal luminescence (AID 2044).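 Note: intracellular parasites grown in NIH/3T3 mouse fibroblasts as host cells; luminescent beta-galactosidase reporter signal from transgenic T. cruzi replicating inside host cells; inhibitors lower the luminescence signal.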 Type of assay: functional, cell-based.
A short description of assay [6]: cytotoxicity toward NIH3T3 fibroblasts, dose response, counter-screen, cell-based, ATP luminescence, mouse fibroblasts (AID 2010).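 Note: cells exposed to compound for about 90 hours before reading.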 Type of assay: functional.
The target of assay [7] is T4, Orexin/Hypocretin receptor type 1 (Homo sapiens, UniProt O43613).
T4 sequence (O43613 whole entry): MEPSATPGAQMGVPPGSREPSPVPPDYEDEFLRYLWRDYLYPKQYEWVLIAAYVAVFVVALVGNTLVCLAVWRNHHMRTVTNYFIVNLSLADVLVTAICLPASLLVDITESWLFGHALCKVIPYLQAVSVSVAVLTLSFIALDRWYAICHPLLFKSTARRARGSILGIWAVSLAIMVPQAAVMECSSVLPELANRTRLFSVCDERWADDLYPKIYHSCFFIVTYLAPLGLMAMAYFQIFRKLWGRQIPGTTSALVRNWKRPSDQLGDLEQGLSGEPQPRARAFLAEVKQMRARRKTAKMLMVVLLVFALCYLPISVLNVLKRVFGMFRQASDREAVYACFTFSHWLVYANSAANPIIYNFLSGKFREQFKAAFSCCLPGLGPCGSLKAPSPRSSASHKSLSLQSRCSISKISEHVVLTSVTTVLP
In words: Fluorescence-based cell-based high throughput dose response assay for antagonists of the orexin 1 receptor (OX1R; HCRTR1). [Related pubchem assays (depositor defined):AID434989, AID435008, AID463079, AID485270, AID492963, AID492964, AID492965, AID493232, AID504717, AID504718]. Type of assay: functional.

For assay [8], the target named is T5, Orexin receptor type 2 (Homo sapiens, UniProt O43614).
T5 sequence (O43614 whole entry): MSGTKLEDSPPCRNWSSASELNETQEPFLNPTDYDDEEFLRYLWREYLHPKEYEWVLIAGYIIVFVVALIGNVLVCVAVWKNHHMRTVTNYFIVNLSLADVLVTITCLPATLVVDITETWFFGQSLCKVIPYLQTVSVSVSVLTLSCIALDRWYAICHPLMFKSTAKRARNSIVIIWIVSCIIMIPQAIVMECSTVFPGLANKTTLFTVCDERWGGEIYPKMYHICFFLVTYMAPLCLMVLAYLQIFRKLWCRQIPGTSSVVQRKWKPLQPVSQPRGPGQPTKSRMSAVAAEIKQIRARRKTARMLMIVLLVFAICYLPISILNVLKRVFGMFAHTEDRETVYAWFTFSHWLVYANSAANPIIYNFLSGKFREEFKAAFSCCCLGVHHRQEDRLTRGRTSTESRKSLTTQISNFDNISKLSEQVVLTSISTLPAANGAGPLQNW
In words: Counterscreen assay for antagonists of the orexin 1 receptor (OX1R; HCRTR1): Fluorescence-based cell-based dose response assay for antagonists of the orexin 2 receptor (OX2R; HCRTR2), run by assay provider. Type of assay: functional.

The nature of assay [9]: Counterscreen for antagonists of the orexin 1 receptor (OX1R; HCRTR1): Fluorescence-based cell-based high throughput dose response assay to identify antagonists of the parental CHO cell line. [Related pubchem assays (depositor defined):AID434989, AID435008, AID463079, AID485270, AID492963, AID492964, AID492965, AID493232, AID504699, AID504701]. Type of assay: functional.

Assay [10] deals with T5, Orexin receptor type 2. In words: Counterscreen assay for antagonists of the orexin 1 receptor (OX1R; HCRTR1): Homogeneous Time Resolved Fluorescence (HTRF)-based cell-based dose response assay for antagonists of the orexin 2 receptor (OX2R; HCRTR2), run by assay provider. Type of assay: functional.
The subject of a further assay is CHO-K1. In words: Counterscreen for antagonists of the orexin 1 receptor (OX1R; HCRTR1): Homogeneous time resolved fluorescence (HTRF)-based cell-based dose response assay to identify antagonists of the parental CHO-K1 cell line. [Related pubchem assays (depositor defined):AID434989, AID435008, AID463079, AID485270, AID492963, AID492964, AID492965, AID493232, AID504699, AID504701]. The conditions noted are these: Cricetulus griseus. Type of assay: functional.

The target in assay [11] is T4, Orexin/Hypocretin receptor type 1. In words: Homogeneous Time Resolved Fluorescence (HTRF)-based cell-based high throughput dose response assay for antagonists of the orexin 1 receptor (OX1R; HCRTR1). [Related pubchem assays (depositor defined):AID434989, AID435008, AID463079, AID485270, AID492963, AID492964, AID492965, AID493232, AID504717, AID504718]. Type of assay: functional.

The nature of assay [12]: HEp-2 cell cytotoxicity, dose response, cytotoxicity control for RSV inhibitor project, HTS (AID 2410). Type of assay: functional. The conditions noted are these: human respiratory syncytial virus.

Sequence of Aurora kinase B (Q96GD4 whole entry): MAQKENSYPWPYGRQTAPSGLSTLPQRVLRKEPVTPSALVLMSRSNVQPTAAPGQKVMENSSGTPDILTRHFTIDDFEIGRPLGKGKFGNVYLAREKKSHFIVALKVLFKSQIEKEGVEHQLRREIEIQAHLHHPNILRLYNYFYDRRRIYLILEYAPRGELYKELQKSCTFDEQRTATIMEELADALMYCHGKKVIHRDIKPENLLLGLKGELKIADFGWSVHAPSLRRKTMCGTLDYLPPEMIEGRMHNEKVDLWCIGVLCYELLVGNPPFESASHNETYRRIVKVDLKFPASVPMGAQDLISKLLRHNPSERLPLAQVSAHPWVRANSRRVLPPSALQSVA
Sequence of Ras and Rab interactor 1/Tyrosine-protein kinase ABL1 (P00519 whole entry): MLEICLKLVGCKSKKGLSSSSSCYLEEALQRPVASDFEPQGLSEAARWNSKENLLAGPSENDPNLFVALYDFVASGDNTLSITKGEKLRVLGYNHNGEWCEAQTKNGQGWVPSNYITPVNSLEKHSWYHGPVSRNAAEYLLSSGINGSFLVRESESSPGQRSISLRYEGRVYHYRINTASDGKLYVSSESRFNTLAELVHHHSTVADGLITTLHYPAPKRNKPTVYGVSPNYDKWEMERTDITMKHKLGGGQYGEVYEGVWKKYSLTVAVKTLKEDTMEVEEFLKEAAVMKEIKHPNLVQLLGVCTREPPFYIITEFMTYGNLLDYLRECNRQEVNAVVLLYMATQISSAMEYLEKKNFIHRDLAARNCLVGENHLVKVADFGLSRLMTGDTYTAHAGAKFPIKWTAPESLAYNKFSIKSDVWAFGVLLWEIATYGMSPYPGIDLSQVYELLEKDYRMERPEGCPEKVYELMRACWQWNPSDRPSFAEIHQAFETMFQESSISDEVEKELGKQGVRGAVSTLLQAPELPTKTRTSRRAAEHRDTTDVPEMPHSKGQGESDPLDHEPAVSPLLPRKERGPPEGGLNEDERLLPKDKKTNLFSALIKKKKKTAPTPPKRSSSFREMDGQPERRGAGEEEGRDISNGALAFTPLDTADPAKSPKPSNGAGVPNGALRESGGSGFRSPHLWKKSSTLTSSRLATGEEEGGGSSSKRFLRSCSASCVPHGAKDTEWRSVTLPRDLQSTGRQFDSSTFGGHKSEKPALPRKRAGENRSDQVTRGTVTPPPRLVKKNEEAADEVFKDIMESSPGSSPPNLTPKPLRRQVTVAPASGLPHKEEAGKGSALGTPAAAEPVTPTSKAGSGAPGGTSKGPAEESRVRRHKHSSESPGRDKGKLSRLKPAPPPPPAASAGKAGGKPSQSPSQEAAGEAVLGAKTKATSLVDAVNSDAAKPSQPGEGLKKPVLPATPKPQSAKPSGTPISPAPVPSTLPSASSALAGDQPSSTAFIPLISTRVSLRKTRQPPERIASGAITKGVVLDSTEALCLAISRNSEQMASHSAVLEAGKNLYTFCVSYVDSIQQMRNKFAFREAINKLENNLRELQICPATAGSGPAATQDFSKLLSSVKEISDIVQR
Sequence of Ras and Rab interactor 1/Tyrosine-protein kinase ABL1 (Q13671 whole entry): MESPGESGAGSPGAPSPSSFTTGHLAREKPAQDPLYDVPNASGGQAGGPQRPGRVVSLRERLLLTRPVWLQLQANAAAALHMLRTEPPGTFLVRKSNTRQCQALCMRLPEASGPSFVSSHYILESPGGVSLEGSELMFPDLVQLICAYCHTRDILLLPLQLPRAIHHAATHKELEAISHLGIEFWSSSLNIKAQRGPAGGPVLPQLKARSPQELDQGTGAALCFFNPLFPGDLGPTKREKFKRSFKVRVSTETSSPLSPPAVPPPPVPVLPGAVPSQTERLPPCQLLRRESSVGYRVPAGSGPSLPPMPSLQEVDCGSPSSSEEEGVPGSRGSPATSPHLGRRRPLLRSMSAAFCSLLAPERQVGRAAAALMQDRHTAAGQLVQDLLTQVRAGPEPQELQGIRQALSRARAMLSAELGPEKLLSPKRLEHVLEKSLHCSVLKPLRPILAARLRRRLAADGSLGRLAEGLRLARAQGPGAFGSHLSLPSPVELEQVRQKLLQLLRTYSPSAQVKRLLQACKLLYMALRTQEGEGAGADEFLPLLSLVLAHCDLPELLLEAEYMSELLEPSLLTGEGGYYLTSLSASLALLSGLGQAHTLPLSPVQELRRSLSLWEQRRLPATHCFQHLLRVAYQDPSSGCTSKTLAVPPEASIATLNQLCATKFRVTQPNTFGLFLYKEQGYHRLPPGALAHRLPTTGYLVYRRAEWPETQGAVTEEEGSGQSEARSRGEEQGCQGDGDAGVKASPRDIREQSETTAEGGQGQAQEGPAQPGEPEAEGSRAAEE
Sequence of FAD-linked sulfhydryl oxidase ALR (P55789 whole entry): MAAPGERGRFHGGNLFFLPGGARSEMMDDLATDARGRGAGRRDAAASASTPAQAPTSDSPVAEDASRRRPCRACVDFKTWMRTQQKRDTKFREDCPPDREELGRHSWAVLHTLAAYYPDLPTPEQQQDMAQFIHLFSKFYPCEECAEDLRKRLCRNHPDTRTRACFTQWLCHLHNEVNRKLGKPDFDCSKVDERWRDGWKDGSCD

In the case of `CC1=NN(Cc2ccccc2)C(=O)C1C(c1ccccc1)C(C#N)C#N` (centres undefined), the half-maximal activity concentration (AC50) in [1] was 5.37 µM (active); in [2], 3.54 µM (active). Further, at Protein RecA, the EC50 is 2.22 µM (active). Besides, the IC50 on Genome polyprotein is 55.4 µM (active).
Regarding `COc1ccc2c(c1)C=C(C(=O)NCc1ccc(Cl)cc1)CO2`, the AC50 in [3] is 69.4 µM (active).
Turning to `CC(Nc1cncc(-n2cnc3ccccc32)n1)c1ccc(F)cc1` (centres undefined), the Ki at Aurora kinase A is 1.26 µM (active); on Aurora kinase B, 0.0794 µM (active).
As for `Cc1ccccc1CN1C[C@@H]2C[C@@H](c3ccc4nsnc4c3)N3CCC[C@@]23C1=O`, the IC50 in assay [4] is 34.1 µM (inactive).
For the molecule `N=C(NOC(=O)c1ccc2ccccc2c1)c1ccccc1Cl`, the EC50 in assay [5] was 1.8 µM (active); in assay [6], 8.76 µM (active). Further, the AC50 in assay [3] was 2.34 µM (active).
For `O=C(N=Nc1c(O)[nH]c2ccccc12)c1cccc(S(=O)(=O)Nc2ccccc2Cl)c1`, the IC50 is > 49.8 µM (inactive) in assay [7]; > 88.8 µM (inactive) at Orexin receptor type 2 [8]; > 49.8 µM (inactive) in [9]; > 50 µM (inactive) at Orexin receptor type 2 [10]; > 66.2 µM (inactive) in the assay on CHO-K1; 1.01 µM (active) in [11].
In the case of `COC(=O)c1cccc(N2C(=O)C(Cl)=C(N3CCOCC3)C2=O)c1`, on Protein RecA, the EC50 was 1.93 µM (active). The IC50 on Genome polyprotein was 23.6 µM (active). Moreover, the AC50 in assay [2] is 4.2 µM (active).
`CC(C)(O)c1cc2ccc(C#Cc3ccsc3)cc2c(=O)o1`: the IC50 in assay [7] is 9.4 µM (active); on Orexin receptor type 2 [8], > 88.8 µM (inactive); in assay [9], > 49.7 µM (inactive); on Orexin receptor type 2 [10] it was > 50 µM (inactive); with CHO-K1, > 66.2 µM (inactive); in [11], 4.32 µM (active).
Consider `COc1ccc(CN2CC[C@H]3C=CC[C@@H](C(=O)Nc4ccc(Cl)c(C(F)(F)F)c4)[C@H]3C2=O)cc1OC`, for which the IC50 in assay [7] is 3.22 µM (active); on Orexin receptor type 2 [8] it was > 88.8 µM (inactive); in assay [9], > 49.8 µM (inactive); at Orexin receptor type 2 [10], > 50 µM (inactive); in “cells”, 23.6 µM (active); with CHO-K1 it was > 66.2 µM (inactive). In addition, in assay [11], the IC50 was 0.071 µM (active). In addition, the CC50 in [12] is 42.4 µM (active).

The values above are taken from ChEMBL document CHEMBL1201862, “PubChem BioAssay data set” (2004).
